Experimental data taken from ChEMBL document CHEMBL3991601, “The target landscape of clinical kinase drugs” (Science, 2017).
Active and inactive are the calls of the source.

Experiments:
[1] = target: Tyrosine-protein kinase ABL2 (Homo sapiens, UniProt P42684)
[2] = target: Chromodomain-helicase-DNA-binding protein 4 (Homo sapiens, UniProt Q14839)
[3] = target: T1, Ferrochelatase, mitochondrial (Homo sapiens, UniProt P22830)
T1 sequence (P22830 whole entry): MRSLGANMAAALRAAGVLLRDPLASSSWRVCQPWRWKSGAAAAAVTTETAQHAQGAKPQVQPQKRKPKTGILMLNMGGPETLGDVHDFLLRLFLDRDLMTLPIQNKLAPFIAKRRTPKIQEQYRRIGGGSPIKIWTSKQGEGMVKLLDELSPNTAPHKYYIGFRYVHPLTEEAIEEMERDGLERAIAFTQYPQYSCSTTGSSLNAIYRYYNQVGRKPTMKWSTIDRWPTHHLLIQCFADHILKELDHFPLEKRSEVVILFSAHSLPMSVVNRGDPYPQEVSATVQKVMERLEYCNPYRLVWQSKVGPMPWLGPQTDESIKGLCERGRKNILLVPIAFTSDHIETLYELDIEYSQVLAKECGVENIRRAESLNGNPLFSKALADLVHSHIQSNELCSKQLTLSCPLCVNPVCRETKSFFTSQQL

Heme oxygenase 2 = target: T2, Heme oxygenase 2 (Homo sapiens, UniProt P30519)
T2 sequence (P30519 whole entry): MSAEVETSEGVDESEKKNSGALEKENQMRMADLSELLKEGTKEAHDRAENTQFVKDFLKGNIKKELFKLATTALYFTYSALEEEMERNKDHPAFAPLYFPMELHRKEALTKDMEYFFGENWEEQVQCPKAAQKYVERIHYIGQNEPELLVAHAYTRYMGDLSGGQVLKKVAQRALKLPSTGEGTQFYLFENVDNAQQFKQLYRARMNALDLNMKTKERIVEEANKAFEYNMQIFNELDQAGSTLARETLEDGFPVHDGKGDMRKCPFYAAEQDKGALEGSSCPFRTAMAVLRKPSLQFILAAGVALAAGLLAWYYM

[4] = target: T3, Bifunctional phosphoribosylaminoimidazole carboxylase/phosphoribosylaminoimidazole succinocarboxamide synthetase (Homo sapiens, UniProt P22234)
T3 sequence (P22234 whole entry): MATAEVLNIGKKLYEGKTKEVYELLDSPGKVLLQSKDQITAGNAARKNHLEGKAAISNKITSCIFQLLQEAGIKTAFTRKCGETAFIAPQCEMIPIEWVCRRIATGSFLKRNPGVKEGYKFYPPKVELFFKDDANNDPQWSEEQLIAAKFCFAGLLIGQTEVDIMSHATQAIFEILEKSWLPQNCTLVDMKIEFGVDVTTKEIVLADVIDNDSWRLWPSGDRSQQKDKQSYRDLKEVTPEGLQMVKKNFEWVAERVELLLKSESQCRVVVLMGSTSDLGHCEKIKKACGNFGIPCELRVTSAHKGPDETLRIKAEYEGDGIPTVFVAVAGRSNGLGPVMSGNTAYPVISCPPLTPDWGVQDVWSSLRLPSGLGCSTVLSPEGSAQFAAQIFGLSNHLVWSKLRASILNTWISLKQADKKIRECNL

[5] = target: T4, Serine/threonine-protein kinase STK11 (Homo sapiens, UniProt Q15831)
T4 sequence (Q15831 whole entry): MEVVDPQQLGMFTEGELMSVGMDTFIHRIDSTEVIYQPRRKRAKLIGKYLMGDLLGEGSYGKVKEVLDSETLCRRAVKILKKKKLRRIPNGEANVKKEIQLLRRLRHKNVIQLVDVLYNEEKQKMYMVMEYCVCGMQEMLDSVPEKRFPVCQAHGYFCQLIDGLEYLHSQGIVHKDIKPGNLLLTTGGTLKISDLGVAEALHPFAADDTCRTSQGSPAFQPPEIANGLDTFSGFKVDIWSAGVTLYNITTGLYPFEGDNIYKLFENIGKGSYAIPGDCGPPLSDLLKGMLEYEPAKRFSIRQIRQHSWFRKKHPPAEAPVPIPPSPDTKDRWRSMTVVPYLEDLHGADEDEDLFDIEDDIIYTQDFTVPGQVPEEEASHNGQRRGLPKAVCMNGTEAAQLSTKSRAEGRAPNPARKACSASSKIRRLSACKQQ

[6] = target: T5, Serine/threonine-protein kinase ULK1 (Homo sapiens, UniProt O75385)
T5 sequence (O75385 whole entry): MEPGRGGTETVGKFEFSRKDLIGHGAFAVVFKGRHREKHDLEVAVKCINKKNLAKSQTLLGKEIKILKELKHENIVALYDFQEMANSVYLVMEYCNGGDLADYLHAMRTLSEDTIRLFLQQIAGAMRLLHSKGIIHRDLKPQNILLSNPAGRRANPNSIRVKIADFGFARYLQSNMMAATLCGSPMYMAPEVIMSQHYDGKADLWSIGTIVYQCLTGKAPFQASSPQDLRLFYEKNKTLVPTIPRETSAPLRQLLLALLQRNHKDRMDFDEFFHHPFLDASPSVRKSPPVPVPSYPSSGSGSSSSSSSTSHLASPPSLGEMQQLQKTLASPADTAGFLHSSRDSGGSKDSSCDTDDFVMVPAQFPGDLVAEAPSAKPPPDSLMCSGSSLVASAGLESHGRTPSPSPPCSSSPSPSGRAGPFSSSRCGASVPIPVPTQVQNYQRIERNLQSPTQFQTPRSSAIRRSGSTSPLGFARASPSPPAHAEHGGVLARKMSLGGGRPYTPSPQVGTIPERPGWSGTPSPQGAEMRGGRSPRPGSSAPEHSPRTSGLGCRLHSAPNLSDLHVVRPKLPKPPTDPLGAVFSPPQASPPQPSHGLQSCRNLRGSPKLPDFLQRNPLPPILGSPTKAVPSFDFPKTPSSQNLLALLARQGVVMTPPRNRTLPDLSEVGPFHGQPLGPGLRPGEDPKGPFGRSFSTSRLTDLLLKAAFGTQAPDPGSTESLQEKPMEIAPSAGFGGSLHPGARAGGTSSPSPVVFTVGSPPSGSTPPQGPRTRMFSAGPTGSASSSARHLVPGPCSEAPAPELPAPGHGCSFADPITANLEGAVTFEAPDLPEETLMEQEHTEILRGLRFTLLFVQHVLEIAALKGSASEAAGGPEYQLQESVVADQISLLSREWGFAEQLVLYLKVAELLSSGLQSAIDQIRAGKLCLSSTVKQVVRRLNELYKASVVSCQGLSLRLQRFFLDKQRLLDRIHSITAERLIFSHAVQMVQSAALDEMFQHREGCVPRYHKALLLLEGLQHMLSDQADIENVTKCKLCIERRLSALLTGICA
Note: in the data inactive means no Kd found up to 30 µM.

Sequence of Chromodomain-helicase-DNA-binding protein 4 (Q14839 whole entry): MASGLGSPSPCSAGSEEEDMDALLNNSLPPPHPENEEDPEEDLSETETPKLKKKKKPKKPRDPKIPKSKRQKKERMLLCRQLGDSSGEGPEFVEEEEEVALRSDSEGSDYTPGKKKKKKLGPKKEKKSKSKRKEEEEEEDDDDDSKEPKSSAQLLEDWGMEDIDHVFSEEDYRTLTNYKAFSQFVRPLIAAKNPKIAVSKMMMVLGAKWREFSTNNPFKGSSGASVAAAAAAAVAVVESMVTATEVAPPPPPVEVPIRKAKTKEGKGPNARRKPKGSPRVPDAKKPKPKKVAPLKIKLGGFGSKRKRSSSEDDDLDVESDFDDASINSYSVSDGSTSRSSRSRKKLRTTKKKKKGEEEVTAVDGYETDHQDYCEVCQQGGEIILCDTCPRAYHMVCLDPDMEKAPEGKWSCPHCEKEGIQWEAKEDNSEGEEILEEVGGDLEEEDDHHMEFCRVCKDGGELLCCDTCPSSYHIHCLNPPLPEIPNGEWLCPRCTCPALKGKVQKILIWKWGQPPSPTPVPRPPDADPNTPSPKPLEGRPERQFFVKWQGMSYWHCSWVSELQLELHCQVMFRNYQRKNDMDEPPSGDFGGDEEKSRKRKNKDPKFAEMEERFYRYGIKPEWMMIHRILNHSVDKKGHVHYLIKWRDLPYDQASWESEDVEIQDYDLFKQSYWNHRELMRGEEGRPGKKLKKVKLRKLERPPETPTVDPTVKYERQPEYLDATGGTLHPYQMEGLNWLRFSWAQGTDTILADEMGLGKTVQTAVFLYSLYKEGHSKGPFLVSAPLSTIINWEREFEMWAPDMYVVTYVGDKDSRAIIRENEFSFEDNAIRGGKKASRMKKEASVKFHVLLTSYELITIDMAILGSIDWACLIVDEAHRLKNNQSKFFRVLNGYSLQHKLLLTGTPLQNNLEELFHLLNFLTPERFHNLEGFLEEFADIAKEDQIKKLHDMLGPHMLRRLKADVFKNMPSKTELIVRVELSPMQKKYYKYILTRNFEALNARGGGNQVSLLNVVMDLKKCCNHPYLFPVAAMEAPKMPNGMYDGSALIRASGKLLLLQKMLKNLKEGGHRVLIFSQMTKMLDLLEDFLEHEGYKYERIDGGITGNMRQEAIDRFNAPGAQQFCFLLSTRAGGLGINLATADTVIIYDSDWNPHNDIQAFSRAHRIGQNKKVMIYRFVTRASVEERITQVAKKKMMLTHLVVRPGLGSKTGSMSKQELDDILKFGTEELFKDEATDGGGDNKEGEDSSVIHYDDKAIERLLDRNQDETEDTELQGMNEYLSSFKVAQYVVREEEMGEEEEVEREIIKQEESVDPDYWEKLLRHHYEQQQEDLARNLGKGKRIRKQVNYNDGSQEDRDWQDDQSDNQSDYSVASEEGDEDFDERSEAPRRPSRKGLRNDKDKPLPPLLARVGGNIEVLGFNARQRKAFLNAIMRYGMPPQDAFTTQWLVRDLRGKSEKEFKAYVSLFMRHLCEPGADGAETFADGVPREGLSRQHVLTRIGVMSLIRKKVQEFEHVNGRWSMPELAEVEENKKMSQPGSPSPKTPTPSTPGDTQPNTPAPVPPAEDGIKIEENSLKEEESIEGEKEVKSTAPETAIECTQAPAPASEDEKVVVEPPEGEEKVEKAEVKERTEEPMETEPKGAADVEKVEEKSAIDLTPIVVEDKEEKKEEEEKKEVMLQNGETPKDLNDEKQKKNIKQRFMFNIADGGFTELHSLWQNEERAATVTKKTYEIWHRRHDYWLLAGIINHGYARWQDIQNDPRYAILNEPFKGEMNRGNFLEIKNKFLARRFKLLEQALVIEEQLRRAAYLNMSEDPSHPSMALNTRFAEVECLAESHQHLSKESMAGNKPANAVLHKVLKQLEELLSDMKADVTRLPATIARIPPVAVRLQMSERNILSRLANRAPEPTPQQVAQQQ
Sequence of Tyrosine-protein kinase ABL2 (P42684 whole entry): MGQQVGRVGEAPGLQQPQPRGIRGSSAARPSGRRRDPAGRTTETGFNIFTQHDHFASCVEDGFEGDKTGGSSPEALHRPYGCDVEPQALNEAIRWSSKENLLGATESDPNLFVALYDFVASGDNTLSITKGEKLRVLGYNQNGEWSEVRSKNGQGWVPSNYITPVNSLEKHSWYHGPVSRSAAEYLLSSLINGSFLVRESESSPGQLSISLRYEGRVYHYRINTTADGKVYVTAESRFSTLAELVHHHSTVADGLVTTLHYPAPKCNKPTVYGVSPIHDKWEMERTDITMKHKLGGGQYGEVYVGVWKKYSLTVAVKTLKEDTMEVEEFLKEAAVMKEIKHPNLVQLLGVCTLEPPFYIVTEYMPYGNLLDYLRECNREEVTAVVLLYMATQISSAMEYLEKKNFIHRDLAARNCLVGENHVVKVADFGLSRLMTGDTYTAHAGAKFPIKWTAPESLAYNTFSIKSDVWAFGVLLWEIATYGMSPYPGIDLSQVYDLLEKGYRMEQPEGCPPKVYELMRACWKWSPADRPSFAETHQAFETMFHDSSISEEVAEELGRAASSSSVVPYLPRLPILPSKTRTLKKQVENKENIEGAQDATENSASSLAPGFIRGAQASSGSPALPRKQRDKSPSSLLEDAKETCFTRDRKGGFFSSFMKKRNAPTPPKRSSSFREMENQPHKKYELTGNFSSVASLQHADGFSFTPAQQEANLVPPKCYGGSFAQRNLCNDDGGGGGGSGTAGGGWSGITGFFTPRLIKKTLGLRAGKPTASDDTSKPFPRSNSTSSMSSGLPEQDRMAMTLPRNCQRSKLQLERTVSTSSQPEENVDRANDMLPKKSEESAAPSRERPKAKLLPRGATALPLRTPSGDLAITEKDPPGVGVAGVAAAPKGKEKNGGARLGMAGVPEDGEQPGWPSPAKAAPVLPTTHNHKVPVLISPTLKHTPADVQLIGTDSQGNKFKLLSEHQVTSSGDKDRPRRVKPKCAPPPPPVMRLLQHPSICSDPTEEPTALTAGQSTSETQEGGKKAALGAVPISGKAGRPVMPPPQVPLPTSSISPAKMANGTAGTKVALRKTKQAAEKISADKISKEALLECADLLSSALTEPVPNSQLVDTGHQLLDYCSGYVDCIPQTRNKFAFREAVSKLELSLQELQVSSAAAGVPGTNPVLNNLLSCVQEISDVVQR

| SMILES | Kd [1] | Kd [2] | Kd [3] | Kd (Heme oxygenase 2) | Kd [4] | Kd [5] | Kd [6] |
| --- | --- | --- | --- | --- | --- | --- | --- |
| O=C(NOC[C@H](O)CO)c1ccc(F)c(F)c1Nc1ccc(I)cc1F [MIRDAMETINIB] | > 30 µM (inactive) | > 30 µM (inactive) | > 30 µM (inactive) | > 30 µM (inactive) | > 30 µM (inactive) | > 30 µM (inactive) | > 30 µM (inactive) |
| COc1cc(Nc2ncc(F)c(Nc3ccc4c(n3)N(COP(=O)(O)O)C(=O)C(C)(C)O4)n2)cc(OC)c1OC [FOSTAMATINIB] | > 30 µM (inactive) | > 30 µM (inactive) | > 30 µM (inactive) | > 30 µM (inactive) | > 30 µM (inactive) | > 30 µM (inactive) | > 30 µM (inactive) |
| FC(F)(F)c1ccc(CNc2ccc(Cc3c[nH]c4ncc(Cl)cc34)cn2)cn1 [PEXIDARTINIB] | > 30 µM (inactive) | > 30 µM (inactive) | > 30 µM (inactive) | > 30 µM (inactive) | > 30 µM (inactive) | > 30 µM (inactive) | > 30 µM (inactive) |
| S=C(NCc1ccc2c(c1)OCO2)N1CCN(c2ncnc3c2oc2ccccc23)CC1 [AMUVATINIB] | > 30 µM (inactive) | > 30 µM (inactive) | > 30 µM (inactive) | > 30 µM (inactive) | > 30 µM (inactive) | > 30 µM (inactive) | > 30 µM (inactive) |
| C=CC(=O)Nc1cccc(Nc2nc(Nc3ccc(N4CCN(C(C)=O)CC4)cc3OC)ncc2C(F)(F)F)c1 [ROCILETINIB] | > 30 µM (inactive) | > 30 µM (inactive) | > 30 µM (inactive) | > 30 µM (inactive) | > 30 µM (inactive) | > 30 µM (inactive) | > 30 µM (inactive) |
| C[C@@H]1COC(Nc2ccc3ncnc(Nc4ccc(OCc5nccs5)c(Cl)c4)c3c2)=N1 [VARLITINIB] | > 30 µM (inactive) | > 30 µM (inactive) | 76.4 µM | > 30 µM (inactive) | > 30 µM (inactive) | > 30 µM (inactive) | > 30 µM (inactive) |
| CCN1CCN(Cc2ccc(Nc3ncc(F)c(-c4cc(F)c5nc(C)n(C(C)C)c5c4)n3)nc2)CC1 [ABEMACICLIB] | > 30 µM (inactive) | > 30 µM (inactive) | > 30 µM (inactive) | > 30 µM (inactive) | > 30 µM (inactive) | > 30 µM (inactive) | > 30 µM (inactive) |
| O=c1[nH]c([C@@H]2CCCN2)nc2c1oc1ccc(Cl)cc12 | > 30 µM (inactive) | > 30 µM (inactive) | > 30 µM (inactive) | > 30 µM (inactive) | > 30 µM (inactive) | > 30 µM (inactive) | > 30 µM (inactive) |
| C=CCn1c(=O)c2cnc(Nc3ccc(N4CCN(C)CC4)cc3)nc2n1-c1cccc(C(C)(C)O)n1 [ADAVOSERTIB] | > 30 µM (inactive) | > 30 µM (inactive) | > 30 µM (inactive) | > 30 µM (inactive) | > 30 µM (inactive) | > 30 µM (inactive) | > 30 µM (inactive) |
| COCCN1CCN(Cc2ccc(-c3n[nH]c4c3C(=O)c3c(NC(=O)NN5CCOCC5)cccc3-4)cc2)CC1 [RGB-286638] | > 30 µM (inactive) | > 30 µM (inactive) | > 30 µM (inactive) | > 30 µM (inactive) | > 30 µM (inactive) | > 30 µM (inactive) | > 30 µM (inactive) |
| C[C@]1(O)C[C@@H](c2nc(-c3ccc4ccc(-c5ccccc5)nc4c3)c3c(N)nccn32)C1 [LINSITINIB] | > 30 µM (inactive) | > 30 µM (inactive) | 4.21 µM (active) | > 30 µM (inactive) | > 30 µM (inactive) | > 30 µM (inactive) | > 30 µM (inactive) |

Next, values leading:

| Kd [1] | Kd [2] | Kd [3] | Kd (Heme oxygenase 2) | Kd [4] | Kd [5] | Kd [6] | SMILES |
| --- | --- | --- | --- | --- | --- | --- | --- |
| > 30 µM (inactive) | > 30 µM (inactive) | > 30 µM (inactive) | > 30 µM (inactive) | > 30 µM (inactive) | > 30 µM (inactive) | > 30 µM (inactive) | O=C(Nc1ccc(OC(F)(F)F)cc1)c1sccc1NCc1ccnc2ccccc12 [OSI-930] |
| > 30 µM (inactive) | > 30 µM (inactive) | > 30 µM (inactive) | > 30 µM (inactive) | > 30 µM (inactive) | > 30 µM (inactive) | > 30 µM (inactive) | CNC(=O)c1cc(COc2nnc(Nc3ccc(Cl)cc3)c3ccoc23)ccn1 [TELATINIB] |
| > 30 µM (inactive) | > 30 µM (inactive) | > 30 µM (inactive) | > 30 µM (inactive) | > 30 µM (inactive) | 0.714 µM | > 30 µM (inactive) | Cc1cc(Nc2nc(N[C@@H](C)c3ncc(F)cn3)ncc2Cl)n[nH]1 [AZD-1480] |
| > 30 µM (inactive) | > 30 µM (inactive) | > 30 µM (inactive) | > 30 µM (inactive) | > 30 µM (inactive) | > 30 µM (inactive) | 23.3 µM (active) | O=S(=O)(c1cccc2c(O)nccc12)N1CCCNCC1 [HYDROXYFASUDIL] |
| > 30 µM (inactive) | > 30 µM (inactive) | > 30 µM (inactive) | > 30 µM (inactive) | > 30 µM (inactive) | > 30 µM (inactive) | 3.66 µM (active) | O=C(O)c1ccc2c(c1)nc(Nc1cccc(Cl)c1)c1ccncc12 [SILMITASERTIB] |
| 7.07 µM (active) | > 30 µM (inactive) | > 30 µM (inactive) | > 30 µM (inactive) | > 30 µM (inactive) | > 30 µM (inactive) | > 30 µM (inactive) | CC[C@@](C)(Nc1ccnc(-c2c[nH]c3ncccc23)n1)C(=O)NCC(F)(F)F [DECERNOTINIB] |
| > 30 µM (inactive) | > 30 µM (inactive) | > 30 µM (inactive) | > 30 µM (inactive) | > 30 µM (inactive) | > 30 µM (inactive) | > 30 µM (inactive) | CCc1cc2c(cc1N1CCC(N3CCOCC3)CC1)C(C)(C)c1[nH]c3cc(C#N)ccc3c1C2=O [ALECTINIB] |
